# Measurements published in article PMC9410537, “Discovery of Ircinianin Lactones B and C—Two New Cyclic Sesterterpenes from the Marine Sponge Ircinia wistarii” (Marine Drugs, 2022).
# Like-named read-outs stand apart in the source and are kept apart here.
# Assays:
# [1] = Observed stability of the isolated compounds; format: physicochemical
# Excerpt: The shift values of the terminal heterocycle were in very good agreement with literature data from similar natural products, bearing a γ-hydroxy-γ-butenolide moiety. Analogous to compound 7, the Δ^8,10 double bond of 8 was defined as E (C-9: δC 16.2 and NOESY cross correlations depicted in Figure 4). Likewise, based on the same observed diagnostic NOE crosspeaks for the indene system (Figure S43B) and for biogenetic reasons, we propose that 8 is 11R*, 15R*, 18S*, 20R*, 21S* configured. […] Therefore, we integrated computational methods and aimed for quantum-mechanical predictions of ^1H and ^13C NMR chemical shifts of a 1S- and a 1R-configured version of 8.
# All tests were performed with 1 as a pre-screening for the scaffold’s activity within their respective assays. Based on the results from the pre-screening, the biological evaluation of the structural congeners was planned. Unfortunately, an instability phenomenon affected the purity of the isolated compounds. Due to the limited amounts of the isolated compounds, repurification would not have yielded the required sample quantity for the assays. This reality precluded biological evaluation of the structural congeners 3–8.
# [2] = system: P. falciparum NF54 strain; experiment: In vitro activity against erythrocytic stages of P. falciparum (3H-hypoxanthine incorporation assay); format: cell-based; conditions: Plasmodium falciparum, Table 2 values are means of two independent assays
# Protocol: Activity against P. falciparum. In vitro activity against erythrocytic stages of P. falciparum was determined using a ^3H-hypoxanthine incorporation assay against the drug-sensitive NF54 strain [76]. Compounds were dissolved in DMSO at 10 mg/mL and further diluted in medium before being added to parasite cultures incubated in RPMI 1640 medium without hypoxanthine, supplemented with HEPES (5.94 g/L), NaHCO3 (2.1 g/L), neomycin (100 U/mL), Albumax^R (5 g/L) and washed human red cells A^+ at 2.5% haematocrit (0.3% parasitaemia). Serial drug dilutions ranged from 100 to 0.002 μg/mL. The 96-well plates were incubated in a humidified atmosphere at 37 °C; 4% CO2, 3% O2, 93% N2. After 48 h 50 μL of ^3H-hypoxanthine (=0.5 μCi) was added to each well of the plate. The plates were incubated for a further 24 h under the same conditions. The plates were then harvested with a Betaplate™ cell harvester (Wallac, Zurich, Switzerland) and the red blood cells were transferred onto a glass fiber filter then washed with distilled water. The dried filters were inserted into a plastic foil with 10 mL of scintillation fluid and counted in a Betaplate™ liquid scintillation counter (Wallac, Zurich, Switzerland). IC50 values were calculated from sigmoidal inhibition curves by linear regression using Microsoft Excel. Chloroquine diphosphate (Sigma C6628) was used as control (IC50 0.006 ± 0.002 μM).
# [3] = system: Trypanosoma brucei rhodesiense STIB900; experiment: Activity against Trypanosoma brucei rhodesiense STIB900 (resazurin); conditions: Table 2 values are means of two independent assays
# Protocol: Activity against Trypanosoma brucei rhodesiense STIB900. […] Minimum Essential Medium (50 µL) supplemented with 25 mM HEPES, 1 g/L additional glucose, 1% MEM non-essential amino acids (100×), 0.2 mM 2-mercaptoethanol, 1 mM Na-pyruvate and 15% heat inactivated horse serum was added to each well of a 96-well microtiter plate. Serial drug dilutions ranging from 100 to 0.002 μg/mL were prepared. Then, 4 × 10^3 bloodstream forms of T. b. rhodesiense STIB 900 in 50 µL were added to each well and the plate was incubated at 37 °C under a 5% CO2 atmosphere for 70 h. 10 µL of a resazurin solution (resazurin, 12.5 mg in 100 mL double-distilled water) was then added to each well and incubation continued for a further 2–4 h [70]. The plates were read with a Spectramax Gemini XS microplate fluorometer (Molecular Devices Cooperation, Sunnyvale, CA, USA) using an excitation wavelength of 536 nm and an emission wavelength of 588 nm. Data were analyzed using Softmax Pro (Molecular Devices Cooperation, Sunnyvale, CA, USA), which calculated IC50 values by linear regression [71] and 4-parameter logistic regression from the sigmoidal dose inhibition curves.
# [4] = system: L-6 cells (rat skeletal myoblasts); experiment: In vitro cytotoxicity assay with L-6 cells (resazurin); format: cell-based; conditions: L6, 70 h, read-out: IC50 L6
# Protocol: In vitro cytotoxicity assay with L-6 cells. Assays were performed in 96-well microtiter plates, each well containing 100 μL of RPMI 1640 medium supplemented with 1% L-glutamine (200 mM) and 10% fetal bovine serum, and 4000 L-6 cells (a primary cell line derived from rat skeletal myoblasts). Serial drug dilutions ranged from 100 to 0.002 μg/mL. After 70 h of incubation, the plates were inspected under an inverted microscope to assure growth of the controls and sterile conditions. 10 μL of resazurin was then added to each well and the plates were incubated for another 2 h. […] Podophyllotoxin (Sigma P4405) was used as control (IC50 0.011 ± 0.005 μM).
# [5] = system: T. cruzi Tulahuen strain C2C4; experiment: Activity against T. cruzi in L-6 cells (beta-galactosidase/CPRG); format: cell-based, Trypanosoma cruzi; conditions: Tulahuen C2C4 in L-6 cells, Table 2 values are means of two independent assays
# Protocol: Activity against T. cruzi. Rat skeletal myoblasts (L-6 cells) were seeded in 96-well microtiter plates at 2000 cells/well in 100 μL RPMI 1640 medium with 10% FBS and 2 mM L-glutamine. After 24 h, the media in each well was removed and replaced with 100 μL of fresh media containing 5000 trypomastigote forms of T. cruzi Tulahuen strain C2C4 containing the β-galactosidase (lacZ) gene. After 48 h, the media was removed from the wells again, and this time, replaced by 100 μL fresh medium with or without 1 from 100 to 0.002 μg/mL. After 96 h of incubation, the plates were inspected under an inverted microscope to assess growth and sterility of the controls. Then, the substrate CPRG/Nonidet (50 μL) was added to all wells. A color reaction developed within 2–6 h and could be read photometrically at 540 nm.
# [6] = system: L. donovani strain MHOM/ET/67/L82 axenic amastigotes; experiment: Activity against L. donovani axenic amastigotes (resazurin); format: cell-based, Leishmania donovani; conditions: in vitro, Table 2 values are means of two independent assays
# Protocol: Activity against L. donovani axenic amastigotes. Amastigotes of L. donovani strain MHOM/ET/67/L82 were grown in axenic culture at 37 °C in SM medium at pH 5.4 supplemented with 10% heat-inactivated fetal bovine serum under an atmosphere of 5% CO2 in air. 100 µL of culture medium with 10^5 amastigotes from axenic culture with or without a serial drug dilution were seeded in 96-well microtiter plates. Serial drug dilutions ranged from 100 to 0.002 μg/mL. After 70 h of incubation, the plates were inspected under an inverted microscope to assure growth of the controls and sterile conditions.
compound,measurement,setting,value
Ircinianin lactone A [compound 6],Stability of isolated compound,[1],unstable
Ircinianin lactone B [compound 7],Stability of isolated compound,[1],unstable
"CCN(CC)CCCC(C)Nc1ccnc2cc(Cl)ccc12 (stereo not drawn) [chloroquine, Chloroquine diphosphate, reference compound]",IC50,[2],6 nM
"Nc1nc(N)nc(Nc2ccc([As]3SCC(CO)S3)cc2)n1 (stereo not drawn) [melarsoprol, Melarsoprol, reference compound]",IC50,"[3]; Trypanosoma brucei, RHODESIENSE|STIB900, read-out: IC50 T. brucei rhodesiense, in vitro, STIB900 bloodstream forms",13 ± 6 nM
same,IC50,"[3]; read-out: IC50 T. brucei rhodesiense, in vitro, STIB900 bloodstream forms",20 nM
"COc1cc([C@@H]2c3cc4c(cc3[C@H](O)[C@H]3COC(=O)[C@H]23)OCO4)cc(OC)c1OC [Podophyllotoxin, reference compound]",IC50,[4],11 ± 5 nM
"CC(=CC1C=C(C)C2CCC(C)C2C12OC(=O)C(C)=C2O)CCCC1=CC(=O)OC1O (stereo not drawn) [compound 8, Ircinianin lactone C]",Stability of isolated compound,[1]; rapid decomposition after the NMR measurements,unstable
"O=C(Cn1ccnc1[N+](=O)[O-])NCc1ccccc1 [benznidazole, Benznidazole, reference compound]",IC50,"[5]; Trypanosoma cruzi, TULAHUEN, L6, in vitro",2310 ± 1150 nM
same,IC50,[5]; in vitro,3360 nM
Oxoircinianin [compound 3],Stability of isolated compound,[1],unstable
"CCCCCCCCCCCCCCCCOP(=O)([O-])OCC[N+](C)(C)C [miltefosine, Miltefosine]",IC50,[6]; Leishmania donovani,650 ± 270 nM
same,IC50,[6],486 nM
